≈ marks a conversion by molar mass, not a printed value. Where two headings read alike, the source gives them in different places.
How the values were obtained:
[1] = test system: Influenza A (H1N1) Texas/36/91; experiment: microbe, parasite or virus in culture; type: cell-based, influenza A virus; conditions: Influenza A virus, MDCK; Influenza A (H1N1) Texas/36/91; read-out: CPE Inhibition EC50
[2] = test system: Influenza A (H1N1) Texas/36/91; experiment: microbe, parasite or virus in culture; type: cell-based, influenza A virus; conditions: Influenza A virus, MDCK; Influenza A (H1N1) Texas/36/91; read-out: Neutral Red EC50
[3] = test system: Influenza A (H3N2) Beijing/32/92; experiment: microbe, parasite or virus in culture; type: cell-based, influenza A virus; conditions: Influenza A virus, MDCK; Influenza A (H3N2) Beijing/32/92; read-out: CPE Inhibition EC50
[4] = test system: Influenza A (H3N2) Beijing/32/92; experiment: microbe, parasite or virus in culture; type: cell-based, influenza A virus; conditions: Influenza A virus, MDCK; Influenza A (H3N2) Beijing/32/92; read-out: Neutral Red EC50
Influenza B Panama/45/90 [5] = experiment: microbe, parasite or virus in culture; type: cell-based; conditions: Influenza B virus, MDCK; Influenza B Panama/45/90; read-out: CPE Inhibition EC50
Influenza B Panama/45/90 [6] = experiment: microbe, parasite or virus in culture; type: cell-based; conditions: Influenza B virus, MDCK, read-out: Neutral Red EC50
Measles Virus [7] = experiment: microbe, parasite or virus in culture; type: cell-based; conditions: Measles morbillivirus, BSC-1; Measles Virus; read-out: CPI Inhibition EC50
Measles Virus [8] = experiment: Measles virus neutral red dye uptake in BSC-1 cells; type: cell-based; conditions: Measles morbillivirus, BSC-1
Adenovirus Type 5 [9] = experiment: microbe, parasite or virus in culture; type: cell-based; conditions: Human mastadenovirus C, A549, read-out: CPE Inhibition EC50
Adenovirus Type 5 [10] = experiment: Adenovirus type 5 neutral red dye uptake in A549 cells; type: cell-based; conditions: Human mastadenovirus C, A549; Adenovirus Type 5; read-out: Neutral Red EC50
[11] = test system: Parainfluenza Type 3 Virus; experiment: organism not typed; type: cell-based; conditions: MA104; Parainfluenza Type 3 Virus; read-out: CPI Inhibition EC50
[12] = test system: Parainfluenza Type 3 Virus; experiment: organism not typed; type: cell-based; conditions: MA104, read-out: Neutral Red EC50
[13] = test system: Respiratory Syncytial Virus; experiment: microbe, parasite or virus in culture; type: cell-based; conditions: human respiratory syncytial virus, MA104; read-out: CPE Inhibition EC50
[14] = test system: Respiratory Syncytial Virus; experiment: microbe, parasite or virus in culture; type: cell-based; conditions: human respiratory syncytial virus, MA104; read-out: Neutral Red EC50
HIV-1 RT = target: T1, HIV-1 RT (Human immunodeficiency virus type 1 group M subtype B, UniProt P03366); experiment: Anti-HIV-1 RT assay (recombinant enzyme); type: biochemical; conditions: for inhibition at 200 µg/mL: read-out: Anti-HIV-1 RT % Inhibition at 200 μg/ml; for Anti-HIV-1 RT IC50: values in parentheses or in words
T1 construct: made in house; host or cells: Escherichia coli

in vitro [15] = conditions: dog
in vitro [16] = conditions: dog, Neutral Red IC50 (cytotoxic)
in vitro [17] = conditions: African green monkey
in vitro [18] = conditions: human
in vitro [19] = conditions: African green monkey; remark: listed apart in the source
HCMV = HCMV CPE inhibition in HFF cells; conditions: for HCMV SI (CC50/EC50): HFF Cells; for EC50: Human betaherpesvirus 5, HFF, read-out: HCMV CPE Inhibition EC50
HSV-1 = HSV-1 CPE inhibition in HFF cells; conditions: for HSV-1 SI (CC50/EC50): HFF Cells; for EC50: Human alphaherpesvirus 1, HFF, read-out: HSV-1 CPE Inhibition EC50
HSV-2 = HSV-2 CPE inhibition in HFF cells; conditions: for HSV-2 SI (CC50/EC50): HFF Cells; for EC50: Human alphaherpesvirus 2, HFF, read-out: HSV-2 CPE Inhibition EC50
VZV = VZV plaque reduction assay in HFF cells; conditions: for VZV SI (CC50/EC50): HFF Cells; for EC50: Human alphaherpesvirus 3, HFF, read-out: VZV Plaque Reduction EC50
[20] = Cytotoxicity by neutral red dye uptake, A549 cells; conditions: human
[21] = Cytotoxicity by neutral red dye uptake, BSC-1 cells; conditions: African green monkey
[22] = Cytotoxicity by neutral red dye uptake, MA-104 cells; conditions: African green monkey, Neutral Red IC50 (cytotoxic)
[23] = Cytotoxicity (CC50) in HFF cells in the herpes virus tests; conditions: human
Hepatitis B Virus (HBV) = experiment: Inhibition of HBV replication in 2.2.15 cells, extracellular (virion) HBV DNA; conditions: for anti-HBV activity (in words): 2.2.15 cells; for EC50 / EC90: Hepatitis B virus, 216 h; for EC50: read-out: EC50 (50% effective dose), HBV Virion, 2.2.15 cells, extracellular (virion) HBV DNA, 9 days treatment; for EC90: read-out: EC90 (90% effective dose), HBV Virion, 2.2.15 cells, extracellular (virion) HBV DNA, 9 days treatment;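 as to all read-outs here: extracellular virion HBV DNA in culture medium measured by slot blot hybridization with a 32P-labeled HBV probe, quantified against HBV DNA standards, after 9 days of daily dosing, compared with day 0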
HFF Cells = experiment: Cytotoxicity (CC50) in HFF cells in the herpes virus tests; conditions: HFF Cells, HSV-2 test
[24] = CPE Inhibition IC50 (50% cell inhibitory (cytotoxic) concentration), Influenza A (H1N1) test
[25] = CPE Inhibition IC50 (cytotoxic), Influenza A (H3N2) test
[26] = CPE Inhibition IC50 (cytotoxic), Influenza B test
[27] = CPE Inhibition IC50 (cytotoxic), Respiratory Syncytial Virus test
[28] = CPI Inhibition IC50 (cytotoxic), Parainfluenza Type 3 Virus test
[29] = Parainfluenza Type 3 Virus test
[30] = Respiratory Syncytial Virus test

O=C1CC(c2ccc(O)cc2)Oc2cc(O)c(-c3c(O)cc4c(c3O)C(=O)CC(c3ccc(O)cc3)O4)c(O)c21 (centres unmarked) [Succedaneaflavanone (11), succedaneaflavanone]
EC50 [1]: > 3.2 µg/mL
EC50 [2]: 5.2 µg/mL (≈ 9.59 µM)
EC50 [3]: > 10 µg/mL
EC50 [4]: 12 µg/mL (≈ 22.1 µM)
EC50 (Influenza B Panama/45/90 [5]): 0.97 µg/mL (≈ 1.79 µM)
EC50 (Influenza B Panama/45/90 [6]): 2.2 µg/mL (≈ 4.06 µM)
EC50 (Measles Virus [7]): ~32 µg/mL (≈ 59 µM)
EC50 (Measles Virus [8]): < 12 µg/mL
EC50 (Adenovirus Type 5 [9]): 10 µg/mL (≈ 18.4 µM)
EC50 (Adenovirus Type 5 [10]): 19 µg/mL (≈ 35 µM)
EC50 [11]: > 10 µg/mL
EC50 [12]: 23 µg/mL (≈ 42.4 µM)
EC50 [13]: > 10 µg/mL
EC50 [14]: ~16 µg/mL (≈ 29.5 µM)
activity against HIV-1 RT (in words) (HIV-1 RT): completely inactive
inhibition at 200 µg/mL (HIV-1 RT): 22.1%
Anti-HIV-1 RT IC50 (HIV-1 RT): Inactive
IC50 (in vitro [15]; [24]): 4.9 µg/mL (≈ 9.03 µM)
IC50 (in vitro [15]; [25]): 12 µg/mL (≈ 22.1 µM)
IC50 (in vitro [15]; [26]): 15 µg/mL (≈ 27.6 µM)
IC50 (in vitro [16]; Influenza A (H1N1) test): 5 µg/mL (≈ 9.22 µM)
IC50 (in vitro [16]; Influenza A (H3N2) test): 12 µg/mL (≈ 22.1 µM)
IC50 (in vitro [16]; Influenza B test): 7 µg/mL (≈ 12.9 µM)
IC50 (in vitro [17]): < 23 µg/mL
IC50 (in vitro [18]): 22 µg/mL (≈ 40.6 µM)
IC50 (in vitro [19]; [27]): ~13 µg/mL (≈ 24 µM)
IC50 (in vitro [19]; [28]): ~22 µg/mL (≈ 40.6 µM)
HCMV SI (CC50/EC50) (HCMV): <2.7
EC50 (HCMV): > 20 µg/mL
HSV-1 SI (CC50/EC50) (HSV-1): <3.0
EC50 (HSV-1): > 20 µg/mL
HSV-2 SI (CC50/EC50) (HSV-2): <3.0
EC50 (HSV-2): > 20 µg/mL
VZV SI (CC50/EC50) (VZV): < 3
VZV SI (CC50/EC50) (VZV; listed as Succedaneaflavone (11)): <3.0
EC50 (VZV): > 20 µg/mL
IC50 [20]: 27 µg/mL (≈ 49.8 µM)
IC50 [21]: < 20 µg/mL
IC50 [22, 29]: ~29 µg/mL (≈ 53.5 µM)
IC50 [22, 30]: ~10 µg/mL (≈ 18.4 µM)
CC50 at 3 days [23]: 60.7 µg/mL (≈ 112 µM)
CC50 at 10 days [23]: 60 µg/mL (≈ 111 µM)
CC50 at 14 days [23]: 55.5 µg/mL (≈ 102 µM)
anti-HBV activity (in words) (Hepatitis B Virus (HBV)): inactive
anti-HBV activity (in words) (Hepatitis B Virus (HBV); listed as succendaneaflavanone): little or no anti-HBV activity
EC50 (Hepatitis B Virus (HBV)): > 100 µM
EC90 (Hepatitis B Virus (HBV)): > 100 µM

COc1ccc(-c2cc(=O)c3c(OC)cc(OC)c(C4C(=O)c5c(OC)cc(OC)cc5OC4c4ccc(OC)cc4)c3o2)cc1 (centres unmarked) [Volkensiflavone hexamethyl ether (6), volkensiflavone hexamethyl ether]
EC50 [1]: ~100 µg/mL (≈ 160 µM)
EC50 [2]: ~100 µg/mL (≈ 160 µM)
EC50 [3]: ~100 µg/mL (≈ 160 µM)
EC50 [4]: ~100 µg/mL (≈ 160 µM)
EC50 (Influenza B Panama/45/90 [5]): 2.6 µg/mL (≈ 4.16 µM)
EC50 (Influenza B Panama/45/90 [6]): < 20 µg/mL
EC50 (Measles Virus [7]): < 70 µg/mL
EC50 (Measles Virus [8]): < 7 µg/mL
EC50 (Adenovirus Type 5 [10]): > 100 µg/mL
EC50 [12]: > 32 µg/mL
EC50 [13]: ~18 µg/mL (≈ 28.8 µM)
EC50 [14]: > 32 µg/mL
activity against HIV-1 RT (in words) (HIV-1 RT): inactive
inhibition at 200 µg/mL (HIV-1 RT): 0%
Anti-HIV-1 RT IC50 (HIV-1 RT): Inactive
IC50 (in vitro [15]; [24]): < 24 µg/mL
IC50 (in vitro [15]; [25]): ~100 µg/mL (≈ 160 µM)
IC50 (in vitro [15]; [26]): ~100 µg/mL (≈ 160 µM)
IC50 (in vitro [16]; Influenza A (H1N1) test): ~100 µg/mL (≈ 160 µM)
IC50 (in vitro [16]; Influenza A (H3N2) test): ~100 µg/mL (≈ 160 µM)
IC50 (in vitro [16]; Influenza B test): ~100 µg/mL (≈ 160 µM)
IC50 (in vitro [17]): < 60 µg/mL
IC50 (in vitro [18]): 47 µg/mL (≈ 75.2 µM)
IC50 (in vitro [19]; [27]): ~30 µg/mL (≈ 48 µM)
IC50 (in vitro [19]; [28]): ~15 µg/mL (≈ 24 µM)
HCMV SI (CC50/EC50) (HCMV): 0
EC50 (HCMV): > 100 µg/mL
HSV-1 SI (CC50/EC50) (HSV-1): 0
EC50 (HSV-1): > 100 µg/mL
HSV-2 SI (CC50/EC50) (HSV-2): 0
EC50 (HSV-2): > 100 µg/mL
VZV SI (CC50/EC50) (VZV): 3.4
EC50 (VZV): 3.3 µg/mL (≈ 5.28 µM)
IC50 [20]: 50 µg/mL (≈ 80 µM)
IC50 [21]: < 13 µg/mL
IC50 [22, 29]: ~33 µg/mL (≈ 52.8 µM)
IC50 [22, 30]: ~59 µg/mL (≈ 94.5 µM)
CC50 at 3 days [23]: > 100 µg/mL
CC50 at 10 days [23]: 11.1 µg/mL (≈ 17.8 µM)
CC50 at 14 days [23]: > 100 µg/mL
HSV-2 CPE Inhibition CC50 (HFF Cells): >100 µg/mL
anti-HBV activity (in words) (Hepatitis B Virus (HBV)): moderate anti-HBV activity
EC50 (Hepatitis B Virus (HBV)): 11 µM
EC90 (Hepatitis B Virus (HBV)): 108 µM
SI (CC50/EC90), HBV Virion (Hepatitis B Virus (HBV); selective index): 1.3

Reference: patent publication US6399654B1, “Biflavanoids and derivatives thereof as antiviral agents” (priority 1995, dated 2002)
